Laboratory results published in patent US9371295B2, “Compounds for use in the treatment of disorders that are ameliorated by inhibition of HDAC” (IRBM—Science Park S.p.A., priority 2012, dated 2016).
Where “and” joins values, the source holds several entries; their conditions need not be identical. Identical values can stand only once.

How the values were obtained:
[1] = tested on: erythroid precursor cells (ErPC) from β-thalassemia patients; assay: Fetal hemoglobin production in erythroid precursor cells from β-thalassemia patients (HPLC); format: cell-based, human
Description: Stimulation of the production of mRNA for γ-globin in human erythroid precursors isolated from peripheral blood was detected by using the technique by Fibach (Fibach, E. Hemoglobin, 1998, 22, 445-458; Blood, 1993, 81, 1630-1635). Blood samples were obtained from subjects after written informed consent and the local ethical commette approved the study. This technique provides for two stages: in the first stage, the cells isolated from peripheral blood of an healthy subject or a subject suffering from a hemopoietic pathology, such as sickle cell anaemia or beta-thalassemia, are sown in a culture medium to which 10% of conditioned medium derived from the vescicle carcinoma cell line 5637 has been added. The second stage consists in cultivating the isolated cells in a suitable culture medium, supplemented with erythropoiethin. In short, mononuclear cells were isolated from peripheral blood samples of normal donors and patients by Ficoll-Hypaque density gradient centrifugation and seeded in alpha-minimal essential medium (Sigma-Aldrich) supplemented with 10% FBS (Analitica de Mori), 1 μg/mL cyclosporin A (Sigma-Aldrich), and 10% conditioned medium from the 5637 bladder carcinoma cell line and 10 ng/ml stem cell factor (PeproTech EC Ltd, London, England). After 7-day incubation in this phase I culture, the non-adherent cells were harvested, washed, and recultured in fresh medium composed of α-medium, 30% FBS, 1% de-ionized bovine serum albumin (Sigma-Aldrich), 10^−5 M β-mercaptoethanol, 2 mM L-glutamine, 10^−6 M dexamethasone, 1 U/ml human recombinant erythropoietin (Tebu-bio, Magenta, MI, Italy) and 10 ng/ml stem cell factor. This part of the culture is referred to as phase II. Compounds were added on day 4-5 of phase II and cells were harvested on day 12. All cultures were incubated at 37° C., under an atmosphere of 5% CO2 in air, with extra humidity. The expression of the genes encoding for γ-globin was evaluated by quantitative RT-PCR. The production of HbF was analyzed by HPLC. […]

[2] = Rat PK studies, oral dose; format: in vivo, Sprague-Dawley rats; details: male, Sprague-Dawley, plasma, po 10 mg/kg
Experimental: Rats Male Sprague-Dawley rats (250-350 g) were used for the absorption disposition studies. In each rat an indwelling cannula was implanted in the right jugular vein for blood sampling. The surgery was performed under light anaesthesia (Ketamine-Xilazine (85 mg/kg and 2.5 mg/kg respectively i.m.) one day prior the experiment). During the kinetic study, all animals were housed individually in plastic metabolism cages, and were unrestrained throughout the experiment. Compounds (6 mg/mL) were dissolved in 20% DMSO/60% PEG400/20% water for intravenous administration, and dissolved or suspended in 1% methylcellulose for oral administration (2 mg/ml). After an overnight fast, the rats received an i.v. (via caudal vein) or an oral dose of the compound. Blood samples were collected at different times point after dosing. Plasma was separated immediately after blood sampling by centrifugation, and the plasma samples were kept frozen (−20° C.) until assayed by LC/MS/MS.
Analytical procedures: Plasma samples were extracted using Liquid Handling Robot MultiProbe Packard by protein precipitation with acetonitrile. Then the samples were centrifuged (3000 rpm×15 min at 4° C.) and the supernatant transferred and dried under nitrogen. The samples were reconstituted in water/acetonitrile 90/10 and then injected directly into an HPLC column. Sample analyses were performed using a an API 3000 or/and API 2000 or/and API 4000 Mass Spectrometer interfaced via the Turbo Ion Spray (ESI)/APCI to an LC system consisting of an HTS PAL CTC autosampler and an Agilen HP 1100 Binary Pump. The results are calculated using Analyst Software linear regression with 1/x*x weighting. The Assay Precision was calculated for the Quality Controls by Watson Lims database.
Pharmacokinetic Analysis: The plasma clearance (CLp) of the compounds were calculated (using Watson PK program) as the dose divided by the area under the plasma concentration-time curve from time zero to infinity (AUC0-∞). The apparent half-life was estimated from the slope of the terminal phase of the log plasma concentration-time data. The volume of distribution (Vdss) was determined using the following noncompartmental method: Vdss=(Dose IV×AUMC)/(AUC0-∞)2
where AUMC is the total area under the first moment of the drug concentration time curve from time zero to infinity. Bioavailability was estimated as the AUC0-∞ ratio following oral and intravenous administration, normalized for differences in dose.

Question: For `CCC(=O)CCCCC[C@H](NC(=O)C1CN(C)C1)c1ncc(-c2cc3ccccc3nc2OC)o1` [Compound 2, (S)-N-(1-(5-(2-methoxyquinolin-3-yl)oxazol-2-yl)-7-oxononyl)-1-methylazetidine-3-carboxamide], which “% of fetal hemoglobin production” value ([1]; ErPC from β-thalassemia patients 1-3 (one line per patient), 100 nM) is on record?
Answer: Its value is 78.6% and 85.5% and 81.5%.

Question: And the “proportion of HbF in lysates (cation-exchange HPLC, FIG. 1)” value ([1]; ErPC from β-thalassemic patients, 100 nM, in words)?
Answer: The value was “Increase in the proportion of HbF is detectable”.

Question: What about the “induction of HbF in erythroid precursor cells (ErPC)” value ([1]; ErPC from β-thalassemic patients, in words) of the same molecule?
Answer: The value was “strong inducer of HbF”.

Question: What about the AUC [2] of the same molecule?
Answer: Its AUC is 40 µM·h.

Question: And the Cmax [2]?
Answer: The Cmax was 2790 nM.
